Laboratory results as given in US20240287172A1, “PROTEIN BINDERS TO IRHOM2 EPITOPES” (SCIRHOM GMBH, priority 2019, published 2024).

Tests used:
[1] = test system: PMA-induced release of endogenous IL-6R from PBMCs from healthy donors; assay: ELISA-based IL-6R release assay, PMA-induced, PBMCs from healthy donors; type: cell-based; conditions: Homo sapiens, PBMC; PMA 25 ng/ml, 6 hours; recombinant murine antibodies and IgG at 1 μg/ml; Batimastat at 10 μM
Experimental: (§1) In brief, on day 1, Nunc black MaxiSorp® 96-well plates (Thermo Fisher Scientific, USA) were coated overnight with 100 μl per well of mouse anti-human IL-6R capture antibody (provided as part of the DuoSet ELISA kit) at 4 μg/ml TBS at 4° C. On day 2, the capture antibody solution was removed and MaxiSorp® plates were blocked with 300 μl per well of TBS, 1% BSA at room temperature for 3 hours. Meanwhile, 40,000 PBMC from healthy donors (STEMCELL Technologies, Canada) cells in 80 μl of normal growth medium were seeded in each well of Greiner CELLSTAR V-bottom 96-well plates (Thermo Fisher Scientific, USA) and pre-incubated with 20 μl per well of standard growth medium supplemented with Batimastat (BB94, Abcam, UK) at 50 μM as positive control (for a final concentration of 10 μM in the resulting 100 μl sample volume), mouse IgG antibody (Thermo Fisher Scientific, USA) at 5 μg/ml as isotype control (for a final concentration of 1 μg/ml in the resulting 100 μl sample volume) or antibodies of the invention at 5 μg/ml (for a final concentration of 1 μg/ml in the resulting 100 μl sample volume) at 37° C., 5% CO2 for 30 minutes. […] Using an infinite M1000 (Tecan Group, Switzerland) microplate reader, the fluorescence of each well was collected at an excitation wavelength of 435 nm and an emission wavelength of 555 nm.

[2] = test system: PMA-induced release of endogenous IL-6R from PBMCs from patients suffering from rheumatoid arthritis; assay: ELISA-based IL-6R release assay, PMA-induced, PBMCs from RA-patients; type: cell-based; conditions: Homo sapiens, PBMC; PMA 25 ng/ml, 24 hours; chimeric antibodies (CHO) and IgG at 1 μg/ml; Batimastat at 10 μM
Experimental: as §1, with “C.” for “C. On day 2, the capture antibody solution was removed and MaxiSorp® plates were blocked with 300 μl per well of TBS, 1% BSA at room temperature for 3 hours.”, “patients suffering from rheumatoid arthritis” for “healthy donors”, “minutes. In case of stimulation controls, 20 μl of standard growth medium without test articles were added.” for “minutes.”

SMILES: CNC(=O)[C@H](Cc1ccccc1)NC(=O)[C@H](CC(C)C)[C@H](CSc1cccs1)C(=O)NO [Batimastat]
- inhibition at 10 µM [1]: 114%
- inhibition at 10 µM [2]: 104%
